According to ChEMBL document CHEMBL4732047, “New imidazopyridines with phosphodiesterase 4 and 7 inhibitory activity and their efficacy in animal models of inflammatory and autoimmune diseases” (Eur J Med Chem, 2021):

What was measured:
[1] = biological target: 3',5'-cyclic-AMP phosphodiesterase 4B (Homo sapiens, UniProt Q07343); test: Inhibition of human recombinant PDE4B using cAMP as substrate incubated for 20 mins measured by Kinase Glo reagent based microplate reader assay
[2] = biological target: High affinity 3',5'-cyclic-AMP phosphodiesterase 7A (Homo sapiens, UniProt Q13946); test: Inhibition of human recombinant PDE7A using cAMP as substrate incubated for 20 mins measured by Kinase Glo reagent based microplate reader assay
[3] = biological target: cAMP and cAMP-inhibited cGMP 3',5'-cyclic phosphodiesterase 10A (Homo sapiens, UniProt Q9Y233); test: Inhibition of human recombinant PDE10A using cAMP as substrate incubated for 20 mins measured by Kinase Glo reagent based microplate reader assay
[4] = biological target: Dual specificity calcium/calmodulin-dependent 3',5'-cyclic nucleotide phosphodiesterase 1B (Homo sapiens, UniProt Q01064); test: Inhibition of human recombinant PDE1B using cAMP as substrate incubated for 20 mins measured by Kinase Glo reagent based microplate reader assay
[5] = biological target: cGMP-dependent 3',5'-cyclic phosphodiesterase (Homo sapiens, UniProt O00408); test: Inhibition of human recombinant PDE2A using cGMP as substrate incubated for 20 mins measured by Kinase Glo reagent based microplate reader assay
[6] = biological target: cGMP-inhibited 3',5'-cyclic phosphodiesterase 3A (Homo sapiens, UniProt Q14432); test: Inhibition of human recombinant PDE3A using cAMP as substrate incubated for 20 mins measured by Kinase Glo reagent based microplate reader assay
[7] = biological target: 3',5'-cyclic-AMP phosphodiesterase 4D (Homo sapiens, UniProt Q08499); test: Inhibition of human recombinant PDE4D using cAMP as substrate incubated for 20 mins measured by Kinase Glo reagent based microplate reader assay
[8] = biological target: cGMP-specific 3',5'-cyclic phosphodiesterase (Homo sapiens, UniProt O76074); test: Inhibition of human recombinant PDE5A using cGMP as substrate incubated for 20 mins measured by Kinase Glo reagent based microplate reader assay
[9] = Selectivity index, ratio of IC50 for inhibition of human recombinant PDE4D to IC50 for inhibition of human recombinant PDE4B
[10] = Selectivity index, ratio of IC50 for inhibition of human recombinant PDE3A to IC50 for inhibition of human recombinant PDE4B

Chain of 3',5'-cyclic-AMP phosphodiesterase 4B (Q07343 whole entry): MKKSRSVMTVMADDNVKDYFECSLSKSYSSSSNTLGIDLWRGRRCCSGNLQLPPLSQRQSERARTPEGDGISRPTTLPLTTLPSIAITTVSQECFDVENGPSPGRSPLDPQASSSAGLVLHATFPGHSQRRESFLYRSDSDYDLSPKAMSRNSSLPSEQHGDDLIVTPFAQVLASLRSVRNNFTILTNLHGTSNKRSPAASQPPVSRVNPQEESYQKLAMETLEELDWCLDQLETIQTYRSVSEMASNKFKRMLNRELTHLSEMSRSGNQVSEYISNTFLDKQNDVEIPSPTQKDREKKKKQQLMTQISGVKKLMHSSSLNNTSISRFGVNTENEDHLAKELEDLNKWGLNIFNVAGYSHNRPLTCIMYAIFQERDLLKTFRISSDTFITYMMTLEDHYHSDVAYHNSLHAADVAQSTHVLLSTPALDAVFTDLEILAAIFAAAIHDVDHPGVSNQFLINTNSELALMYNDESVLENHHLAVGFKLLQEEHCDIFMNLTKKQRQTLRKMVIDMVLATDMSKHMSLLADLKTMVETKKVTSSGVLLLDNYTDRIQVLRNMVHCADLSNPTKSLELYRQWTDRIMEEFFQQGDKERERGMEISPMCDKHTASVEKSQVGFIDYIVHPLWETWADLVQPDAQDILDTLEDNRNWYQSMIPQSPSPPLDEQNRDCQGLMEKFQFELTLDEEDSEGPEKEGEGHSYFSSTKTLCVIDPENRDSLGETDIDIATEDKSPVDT
Chain of High affinity 3',5'-cyclic-AMP phosphodiesterase 7A (Q13946 whole entry): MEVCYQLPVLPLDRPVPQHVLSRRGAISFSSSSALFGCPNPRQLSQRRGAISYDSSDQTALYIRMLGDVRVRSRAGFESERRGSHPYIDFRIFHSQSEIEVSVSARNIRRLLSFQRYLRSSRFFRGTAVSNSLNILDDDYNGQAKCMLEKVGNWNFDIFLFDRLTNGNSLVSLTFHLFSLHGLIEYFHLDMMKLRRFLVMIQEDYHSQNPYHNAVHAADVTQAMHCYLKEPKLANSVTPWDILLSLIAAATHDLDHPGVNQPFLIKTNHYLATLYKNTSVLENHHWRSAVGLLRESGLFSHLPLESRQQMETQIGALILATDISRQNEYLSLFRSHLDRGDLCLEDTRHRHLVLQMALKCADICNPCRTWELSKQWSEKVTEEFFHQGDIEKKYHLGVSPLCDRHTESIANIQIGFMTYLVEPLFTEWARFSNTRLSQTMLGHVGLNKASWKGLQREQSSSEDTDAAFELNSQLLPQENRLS
Chain of cGMP-inhibited 3',5'-cyclic phosphodiesterase 3A (Q14432 whole entry): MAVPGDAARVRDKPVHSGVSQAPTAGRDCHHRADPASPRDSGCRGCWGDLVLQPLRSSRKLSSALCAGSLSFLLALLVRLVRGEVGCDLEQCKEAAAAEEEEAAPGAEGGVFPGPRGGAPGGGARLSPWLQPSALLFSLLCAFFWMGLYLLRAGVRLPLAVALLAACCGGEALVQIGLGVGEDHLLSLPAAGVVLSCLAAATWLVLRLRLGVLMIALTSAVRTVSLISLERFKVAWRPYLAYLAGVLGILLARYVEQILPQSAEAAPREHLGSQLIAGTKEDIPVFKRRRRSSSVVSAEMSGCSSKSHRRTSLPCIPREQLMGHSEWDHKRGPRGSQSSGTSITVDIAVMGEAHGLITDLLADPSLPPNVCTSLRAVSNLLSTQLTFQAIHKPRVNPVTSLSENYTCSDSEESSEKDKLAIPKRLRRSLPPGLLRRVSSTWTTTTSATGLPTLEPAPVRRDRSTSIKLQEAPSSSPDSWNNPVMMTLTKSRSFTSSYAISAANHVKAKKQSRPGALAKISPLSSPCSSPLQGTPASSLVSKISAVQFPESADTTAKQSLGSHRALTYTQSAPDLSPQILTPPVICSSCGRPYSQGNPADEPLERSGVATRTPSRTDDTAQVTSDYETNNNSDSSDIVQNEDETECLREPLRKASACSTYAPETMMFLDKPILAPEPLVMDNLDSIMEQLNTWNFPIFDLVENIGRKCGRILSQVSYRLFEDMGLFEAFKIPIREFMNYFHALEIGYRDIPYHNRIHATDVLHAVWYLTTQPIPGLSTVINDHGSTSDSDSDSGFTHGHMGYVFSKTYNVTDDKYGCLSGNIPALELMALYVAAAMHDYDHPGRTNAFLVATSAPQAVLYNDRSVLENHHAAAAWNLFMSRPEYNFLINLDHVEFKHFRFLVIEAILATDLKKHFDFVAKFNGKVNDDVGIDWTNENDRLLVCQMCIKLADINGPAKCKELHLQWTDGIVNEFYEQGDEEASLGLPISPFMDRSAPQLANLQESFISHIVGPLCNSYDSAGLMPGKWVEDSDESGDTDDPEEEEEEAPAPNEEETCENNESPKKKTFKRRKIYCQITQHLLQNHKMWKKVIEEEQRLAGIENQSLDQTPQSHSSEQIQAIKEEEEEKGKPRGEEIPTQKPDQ
Chain of cAMP and cAMP-inhibited cGMP 3',5'-cyclic phosphodiesterase 10A (Q9Y233 whole entry): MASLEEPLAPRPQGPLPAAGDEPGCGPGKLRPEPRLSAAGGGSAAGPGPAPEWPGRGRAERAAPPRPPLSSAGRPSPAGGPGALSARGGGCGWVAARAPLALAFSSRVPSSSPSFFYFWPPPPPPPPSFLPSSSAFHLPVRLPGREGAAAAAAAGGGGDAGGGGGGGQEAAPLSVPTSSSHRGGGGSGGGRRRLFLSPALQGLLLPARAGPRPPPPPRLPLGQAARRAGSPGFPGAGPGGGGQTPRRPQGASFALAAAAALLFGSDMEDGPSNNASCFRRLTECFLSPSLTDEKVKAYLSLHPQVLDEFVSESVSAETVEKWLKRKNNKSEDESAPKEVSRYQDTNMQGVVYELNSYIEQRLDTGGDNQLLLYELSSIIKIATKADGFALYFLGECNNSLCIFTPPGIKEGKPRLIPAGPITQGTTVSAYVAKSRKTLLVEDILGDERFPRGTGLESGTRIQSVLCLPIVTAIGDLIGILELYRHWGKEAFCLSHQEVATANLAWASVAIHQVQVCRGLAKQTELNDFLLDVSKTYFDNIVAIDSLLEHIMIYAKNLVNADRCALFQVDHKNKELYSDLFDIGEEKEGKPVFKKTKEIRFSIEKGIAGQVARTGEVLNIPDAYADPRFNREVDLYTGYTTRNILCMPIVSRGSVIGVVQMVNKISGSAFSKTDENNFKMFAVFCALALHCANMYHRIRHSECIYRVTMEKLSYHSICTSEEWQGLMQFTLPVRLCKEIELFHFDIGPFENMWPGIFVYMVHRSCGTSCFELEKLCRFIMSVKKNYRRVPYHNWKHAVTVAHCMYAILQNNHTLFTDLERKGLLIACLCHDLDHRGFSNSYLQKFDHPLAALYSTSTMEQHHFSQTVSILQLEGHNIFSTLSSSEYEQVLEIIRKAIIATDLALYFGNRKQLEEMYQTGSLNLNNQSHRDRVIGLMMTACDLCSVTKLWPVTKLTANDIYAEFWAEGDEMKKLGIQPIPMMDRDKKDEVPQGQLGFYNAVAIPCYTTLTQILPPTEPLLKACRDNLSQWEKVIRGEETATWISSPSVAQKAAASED
Chain of cGMP-dependent 3',5'-cyclic phosphodiesterase (O00408 whole entry): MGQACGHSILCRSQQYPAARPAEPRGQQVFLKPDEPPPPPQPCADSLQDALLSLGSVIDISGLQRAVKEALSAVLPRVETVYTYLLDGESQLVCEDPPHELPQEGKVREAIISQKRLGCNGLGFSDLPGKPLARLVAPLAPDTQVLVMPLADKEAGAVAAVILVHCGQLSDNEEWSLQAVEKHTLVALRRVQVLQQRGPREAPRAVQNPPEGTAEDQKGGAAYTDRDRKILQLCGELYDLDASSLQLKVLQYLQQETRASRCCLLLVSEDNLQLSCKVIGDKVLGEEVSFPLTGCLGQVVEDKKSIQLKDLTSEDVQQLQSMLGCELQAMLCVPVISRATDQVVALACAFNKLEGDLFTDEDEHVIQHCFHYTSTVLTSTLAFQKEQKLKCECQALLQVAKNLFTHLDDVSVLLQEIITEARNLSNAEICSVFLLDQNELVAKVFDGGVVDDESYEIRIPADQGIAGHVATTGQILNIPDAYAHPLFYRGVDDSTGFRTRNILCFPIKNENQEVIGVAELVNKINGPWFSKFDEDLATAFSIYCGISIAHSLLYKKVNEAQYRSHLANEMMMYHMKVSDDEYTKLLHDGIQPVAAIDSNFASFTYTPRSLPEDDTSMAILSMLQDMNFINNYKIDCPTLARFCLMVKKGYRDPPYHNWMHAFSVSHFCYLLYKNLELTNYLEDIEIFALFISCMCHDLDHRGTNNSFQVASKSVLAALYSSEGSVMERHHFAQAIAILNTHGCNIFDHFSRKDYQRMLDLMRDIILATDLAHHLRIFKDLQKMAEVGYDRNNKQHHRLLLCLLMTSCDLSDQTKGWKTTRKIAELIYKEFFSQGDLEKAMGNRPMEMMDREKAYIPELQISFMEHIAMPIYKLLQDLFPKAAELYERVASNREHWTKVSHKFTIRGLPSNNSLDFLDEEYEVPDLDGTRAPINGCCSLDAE
Chain of Dual specificity calcium/calmodulin-dependent 3',5'-cyclic nucleotide phosphodiesterase 1B (Q01064 whole entry): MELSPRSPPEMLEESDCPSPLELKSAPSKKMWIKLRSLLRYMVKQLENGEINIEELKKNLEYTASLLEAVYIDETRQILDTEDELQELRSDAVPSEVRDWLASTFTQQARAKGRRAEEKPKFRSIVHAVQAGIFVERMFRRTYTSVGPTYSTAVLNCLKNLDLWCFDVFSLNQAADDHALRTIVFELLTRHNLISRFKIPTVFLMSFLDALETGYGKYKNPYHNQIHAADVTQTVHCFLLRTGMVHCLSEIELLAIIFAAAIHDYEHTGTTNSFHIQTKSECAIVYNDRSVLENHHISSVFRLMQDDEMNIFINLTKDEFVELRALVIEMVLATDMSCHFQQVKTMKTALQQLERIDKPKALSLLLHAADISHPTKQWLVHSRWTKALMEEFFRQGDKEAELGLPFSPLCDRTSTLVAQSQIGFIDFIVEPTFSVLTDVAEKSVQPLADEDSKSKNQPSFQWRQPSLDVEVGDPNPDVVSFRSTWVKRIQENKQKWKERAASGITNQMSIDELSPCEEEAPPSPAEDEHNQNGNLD

Structure (SMILES)	IC50 [1]	IC50 [2]	other results
CCCCCn1c(-c2ccccc2)nc2c(NCCc3cccs3)nccc21	15.6 µM	> 200 µM	
Nc1ccnc2c1nc(-c1ccccc1)n2CCCO	100 µM	> 200 µM	
CCCCCn1c(-c2ccco2)nc2c(NCCCO)ccnc21	49.7 µM	63.6 µM	
CCCCCn1c(-c2ccco2)nc2c(NCCOC)ccnc21	9.77 µM	> 200 µM	
CCCCCn1c(-c2ccco2)nc2c(N(C)CCCO)ccnc21	18 µM	18.8 µM	

Stronger by IC50 [1], values ahead:

IC50 [1]	IC50 [2]	Structure (SMILES)	other results
8.66 µM	> 200 µM	CCCCCn1c(-c2ccco2)nc2c(NCc3ccccc3)ccnc21	
3.53 µM	34.2 µM	CCCCCn1c(-c2ccco2)nc2c(NCCCOC)ccnc21	IC50 [3]: 9.97 µM; IC50 [4]: 0.36 µM; IC50 [5]: 6.85 µM; IC50 [6]: 40.6 µM; IC50 [7]: 27.2 µM; IC50 [8]: 53.5 µM; Ratio IC50 [9]: 10; Ratio IC50 [10]: > 10
0.042 µM		CNc1nc(C(F)(F)F)nc2c1ncn2Cc1ccccc1F	
